Assay results taken from patent US9645136B2, “Methods of treating a meiotic kinesin-associated disease” (DANA-FARBER CANCER INSTITUTE, INC., priority 2008, dated 2017).

Columns and labels:
S2 cells [1] = experiment: Centrosome clustering defects in S2 cells after short drug treatment; assay type: cell-based, Drosophila
Experimental: In addition to genes that likely contribute to the bundling and organization of spindle MTs, unexpectedly, genes involved in the organization and regulation of the actin cytoskeleton, such as the formin Form3/INF2 were also identified (Chhabra, E. S. and Higgs, H. N. (2006) J Biol Chem 281:26754-26767). […] Experiments using a brief (2 hr) treatment with small molecules that disrupt the actin cytoskeleton similarly induce multipolar mitoses.
More specifically, cells were treated with Latrunculin (40 μM LatA), Cytochalasin D (20 μM) for 2 hours and the percentage of centrosome clustering defects was determined.
Next, it was determined if cortical contraction is required for centrosome clustering. Cells were exposed, for 2 hours, to soluble tetravalent lectin concanavalin A (Con-A), which crosslinks the plasma membrane and thus globally blocks cortical contraction (Canman, J. C. and Bement, W. M. (1997) J Cell Sci 110 (Pt 16):1907-1917). The percentage of centrosome clustering defects after Con-A treatment was determined.
Low concentrations of calyculin A (CA) inhibit the myosin light chain phosphatase (MLCP) and promote myosin II activation without altering its distribution (Gupton, S. M. and Waterman-Storer, C. M. (2006) Cell 125:1361-1374). […] Thus, in cells with extra centrosomes, actin and actin-based contractility influence whether mitosis is bipolar or multipolar.
It was also determined whether the actin and intrinsic spindle forces act cooperatively to prevent multipolar mitoses. […] To farther evaluate this idea, time-lapse spinning disc microscopy was used to define the trajectory of centrosome movement in Ned-depleted S2 cells. […] Moreover, the bulk of the centrosome movement was directed away from the spindle and towards the cell cortex. […] Thus, cortical forces collaborate with intrinsic spindle bundling forces to organize multiple centrosomes.

MDA-231 cells = experiment: Multipolar spindles in MDA-231 cells; assay type: cell-based
Experimental: The parallel between Drosophila and mammalian cells extended to the genetic requirements for centrosome clustering. To examine this further, siRNA experiments were performed with mammalian HSET (Ned homolog) and Myo10 genes, as follows. Mixed pools (ON-TARGETplus and SMART pools) of 4 different oligos of siRNAs against human HSET, human Myo10 and mouse Myo10 were purchased from Dharmacon, siRNA against mouse HSET was purchased from Ambion. Non-specific scrambled siRNA was used as control (Ambion). The oligo sequence of the siRNAs are set forth below in Table 2:
Cells were transfected with Lipofectamine RNAiMAX (Invitrogen) with a final siRNA concentration of 50 nM according to the manufacturer's instructions. Cells were analyzed/harvested three days after transfection (unless specified otherwise). FIGS. 5 and 6 show the results of Western blots showing the depletion of HSET (FIG. 5) or Myo10 (FIG. 6) after three days of siRNA in MDA-231 and MCF-7 cells. FIG. 7 is a bar graph showing the percentage of cells with multipolar spindles in MCF-7 or MDA-231 cells upon treatment with siRNA of HSET or Myo10. […] As in S2 cells, Myo10-induced multipolarity is not a consequence of cytokinesis failure.
Several lines of evidence support this hypothesis. First, live-cell imaging was used to correlate interphase cell shape with the pattern of cell division during mitosis. MDA-231 (breast cancer cells containing extra centrosomes) that assumed an elongated or polarized shape in interphase, almost uniformly underwent bipolar divisions. […] Second, in tetraploid BSC-1 cells, whose thick RFs are readily visualized by DIC imaging, it was noted that a strong correlation between the positioning of the RFs and whether cells underwent a bipolar (bipolar distribution of RFs) or multipolar division (isotropic distribution of RFs). Third, RFs accumulate specific proteins, such as the ERM protein ezrin, which are implicated in cortical heterogeneity and thus local force generation on astral MTs. […]

[2] = system: MDA-231, MMEDX 4N and N1E-115; experiment: Multipolar spindles after transient actin or astral MT disruption, cell lines with multiple centrosomes; assay type: cell-based
Experimental: (§1) To determine the effect of transient actin disruption in mammalian cells, the cell lines MCF-7, MDA-231, MMEDX 4N and N1E-115 were treated with DMSO, LatA (5 μM) or Dihydrocytochalasin B (DCB) (10 μM) for 2 hours. The MCF-7 cell line contains 2 centrosomes whereas the other cell lines contain greater than 2 centrosomes. […] These multipolar spindles result from declustering of extra centrosomes and were not due to the splitting/fragmentation of centrioles. Actin presumably influences centrosome positioning via forces on astral MTs.

S2 cells [3] = experiment: Live cell imaging of centrosome clustering in S2 cells; assay type: cell-based, Drosophila
Experimental: Relative to controls (14.7±6.4 min), there was a 1.5 fold delay in centrosome clustering in 13/15 LatA-treated cells (22.1±12.3 min). […] The cell cycle delay induced by LatA treatment is likely due to activation of the SAC, as evidenced by prominent labeling of kinetochores with BubR1 in LatA-treated cells.

MCF-7 = experiment: Multipolar spindles in cells with normal centrosome number; assay type: cell-based; conditions: cells plated on FN 30 μg/ml
Experimental: as §1
Cells were transfected with Lipofectamine RNAiMAX (Invitrogen) with a final siRNA concentration of 50 nM according to the manufacturer's instructions. Cells were analyzed/harvested three days after transfection (unless specified otherwise). FIGS. 5 and 6 show the results of Western blots showing the depletion of HSET (FIG. 5) or Myo10 (FIG. 6) after three days of siRNA in MDA-231 and MCF-7 cells. […]
Several lines of evidence support this hypothesis. […] Second, in tetraploid BSC-1 cells, whose thick RFs are readily visualized by DIC imaging, it was noted that a strong correlation between the positioning of the RFs and whether cells underwent a bipolar (bipolar distribution of RFs) or multipolar division (isotropic distribution of RFs). […]

[4] = 2 hours, LatA 5 μM, DCB 10 μM, vs DMSO

Molecule: COC[C@@H]([C@H](O)[C@H](O)C(=O)NCC[C@H](C)c1nc(/C=C/C[C@@H]2O[C@]3(C[C@@H](O)[C@@H]2C)O[C@H]([C@H](C[C@H](O)[C@H](C)[C@H](O)[C@H](C)/C=C(C)/C(C)=C/C=C/C(C)=C\C#N)OC)[C@H](OP(=O)(O)O)C3(C)C)co1)N(C)C [CA, calyculin A]
- centrosome clustering defect induced by Ned RNAi (S2 cells [1]; CA treatment of Ned RNAi cells): partially rescued
- centrosome clustering defects (S2 cells [1]; wild type S2 cells, low concentration CA, 15% without): 9%
- FN-induced increase of multipolar spindles (MDA-231 cells; CA added to cells plated on FN 30 μg/ml): reversed

Molecule: C=C1[C@@H](C)[C@H]2[C@H](Cc3ccccc3)NC(=O)[C@]23OC(=O)CC[C@H](O)CCC[C@@H](C)C/C=C/[C@H]3[C@@H]1O [Dihydrocytochalasin B]
- frequency of multipolar spindles [2, 4]: significant increase

Molecule: C/C1=C/C(=O)O[C@@H]2C[C@@H](CC[C@H](C)/C=C\C=C\CC1)O[C@@](O)([C@@H]1CSC(=O)N1)C2 [LatA, Latrunculin]
- spindle multipolarity (S2 cells [1]; LatA treatment in Ned or Bj1/RCC1-depleted cells): combinatorial increase
- delay in centrosome clustering relative to controls (S2 cells [3]; 13/15 LatA-treated cells): 1.5 fold
- time of centrosome clustering (S2 cells [3]; 13/15 LatA-treated cells, controls 14.7±6.4 min): 22.1 ± 12.3 min
- cells that completely failed to cluster extra centrosomes (S2 cells [3]; LatA-treated cells): 2/15
- frequency of multipolar spindles [2, 4]: significant increase

Molecule: CC(C)(C)n1nc(-c2ccc(Cl)cc2)c2c(N)ncnc21 [PP2]
- multipolar spindles (MDA-231 cells; src kinase inhibitor PP2): induced multipolar spindles

Molecule: COC(=O)Nc1nc2ccc(C(=O)c3cccs3)cc2[nH]1 [nocodazole]
- frequency of multipolar spindles ([2]; low dose nocodazole, cells with extra centrosomes): increased the frequency of multipolar spindles

Molecule: concanavalin A [Con-A]
- centrosome clustering defects / multipolar mitoses (S2 cells [1]; 2 hours treatment): induced centrosome clustering defects

Molecule: fibronectin [FN]
- frequency of multipolar spindles (MCF-7): not in MCF-7 cells
- frequency of multipolar spindles (MDA-231 cells; cells plated on FN 30 μg/ml): increased the frequency of multipolar spindles
